Laboratory results reported in publication PMC7230990, “Deproteinization as a Rapid Method of Saliva Purification for the Determination of Carbamazepine and Carbamazepine-10,11 Epoxide” (Journal of Clinical Medicine, 2020).
Several values for one entry are separate records, joined by “and”; a condition that tells them apart may be missing. Equal values may be shown once.

Legend:
[1] = Carbamazepine and carbamazepine-10,11 epoxide concentrations in saliva of patients treated with carbamazepine (UHPLC-DAD after deproteinization); type: in vivo, human
Experimental: The chromatographic analysis was performed with a Nexer XR UHPLC (Ultra High Performance Liquid Chromatography) liquid chromatograph (Schimadzu, Kyoto, Japan), equipped with a SPD-M30A UV-Vis detector with a diode array and a highly sensitive measuring cell SPD-M30A (85 mm), CBM-20 Alite control system, LC-30AD pump, SIL-30AC autosampler, and CTO-20AC thermostat (Shimadzu, Kyoto, Japan). The compounds were separated using a Luna Omega 1.6 µm Polar C18 (LC Column 50 × 2.1 mm ID) with pre-columns (UHPLC Fully Porous Polar C18, 2.1 mm ID). The compounds were eluted from the column at 35 °C with a mobile phase consisting of water with added formic acid and triethylamine (TEA) (solvent A, pH 4.2) and acetonitrile (solvent B) at a flow of 1 mL/min.
The saliva samples were thawed, centrifuged, and then 200 μL of test material was collected and placed in plastic tubes. A 1% formic acid solution in acetonitrile (600 µL) was added to each of them, mixed with a vortex, shaken (laboratory shaker 358 S, Elpin, Poland) for about 10 min, and centrifuged for 5 min at 8000 rpm. The supernatant was transferred to glass tubes and evaporated. The dry residue was dissolved in 100 μL of an acetonitrile/water mixture with formic acid (1:10), and 10 μL was injected into the chromatographic column.
The usefulness of the method was determined by examining the saliva samples of 20 patients treated with carbamazepine preparations. They were collected from patients of the Nervous and Mentally Ill Hospital in Starogard Gdański (Poland). The study protocol was approved by the ethical committee of the Medical University of Gdansk, Poland (NKBBN/139/2016). Saliva was taken using Salivettes about 2 h after the administration of carbamazepine. The Salivette was placed in a test tube and centrifuged, and the obtained filtrate was frozen at −21 °C and stored until analysis. To perform the analyses, the samples were thawed, centrifuged, and 200 μL of liquid taken. Then, 50 μL of IS solution (10 μg/mL) was added and the procedure described in Section 2.4 was followed.

[2] = Stability of analytes in spiked saliva, freeze–thaw test at −21 °C; type: in vitro ADME, human; settings: freeze–thaw cycles at −21 °C
Experimental: The stability of the analytes was tested for three concentrations (low QC, medium QC, and high QC). The stability of the analytes was determined both in the matrix during storage at 8 °C and in a freeze–thaw test, during which spiked saliva samples were stored at −21 °C. For each concentration of carbamazepine and metabolite, three 800 μL saliva samples were prepared in plastic tubes, spiked with an appropriate volume of analytes, and mixed. Then, 200 μL of saliva was taken from each sample, IS added, extracted, and chromatographed according to the procedures described in Section 2.4 and Section 2.5. The remainder of the sample was placed back in the refrigerator or frozen and analyzed in the following days.
(§1) The compounds whose concentration decreased by less than 15% under the given storage conditions were considered to be stable.

[3] = Stability of extracts kept in the autosampler at 15 °C for 72 h; type: physicochemical; settings: extracts in autosampler at 15 °C for 72 h
Experimental: The stability of the analytes was also determined during their storage in an autosampler at 15 °C for 72 h. For this purpose, five samples of each concentration were extracted and chromatographed. After 72 h, the samples were then chromatographed again alongside a freshly prepared calibration curve.
as §1

[4] = design: method as in PMID 29403934, PMID 23288091, PMID 29957667; settings: cited from earlier work
[5] = Stability of analytes in spiked saliva stored in a fridge at 8 °C; type: in vitro ADME, human; settings: for stability under the tested conditions: saliva at 8 °C, freeze–thaw at −21 °C, autosampler 15 °C 72 h, 30, 2000, 3750 ng/mL, stable = decrease less than 15%; for Difference (%): spiked saliva stored in a fridge at 8 °C
Experimental: The stability of the analytes was tested for three concentrations (low QC, medium QC, and high QC). The stability of the analytes was determined both in the matrix during storage at 8 °C and in a freeze–thaw test, during which spiked saliva samples were stored at −21 °C. […] The remainder of the sample was placed back in the refrigerator or frozen and analyzed in the following days. The compounds whose concentration decreased by less than 15% under the given storage conditions were considered to be stable.

| Compound | mean concentration in saliva ([1]; female patients) | mean concentration in saliva ([1]; male patients) | Carbamazepine Concentration ([1]; saliva of individual patients, about 2 h after administration of carbamazepine, dose 400-1800 mg/day) | Difference (%) ([2]; 30 ng/mL) | Difference (%) ([2]; 2000 ng/mL) | Difference (%) ([2]; 3750 ng/mL) | Difference (%) ([3]; 30 ng/mL) | Difference (%) ([3]; 2000 ng/mL) | Difference (%) ([3]; 3750 ng/mL) | half-life ([4]; after a single administration) | excreted in the urine [4] | stability under the tested conditions [5] | Difference (%) ([5]; 30 ng/mL) | Difference (%) ([5]; 2000 ng/mL) | Difference (%) ([5]; 3750 ng/mL) | mean concentration in saliva ([1]; female, human, in vivo) | determined concentrations in patient saliva, range ([1]; human, in vivo) | mean concentration in saliva ([1]; male, human, in vivo) | highest concentration reduction ([5]; 30 ng/mL in saliva samples stored at 8 °C) |
| --- | --- | --- | --- | --- | --- | --- | --- | --- | --- | --- | --- | --- | --- | --- | --- | --- | --- | --- | --- |
| NC(=O)N1c2ccccc2C=Cc2ccccc21 [Carbamazepine, carbamazepine] | 967 ng/mL | 1882 ng/mL | 344.7 ng/mL and 690.7 ng/mL and 1285.1 ng/mL and 464.0 ng/mL and 282.2 ng/mL and 472.9 ng/mL and 2456.8 ng/mL and 1668.1 ng/mL and 613.5 ng/mL and 784.3 ng/mL and 1119.9 ng/mL and 607.6 ng/mL and 1198.2 ng/mL and 1192.3 ng/mL and 1817.8 ng/mL and 4891.0 ng/mL and 4839.8 ng/mL and 1165.7 ng/mL and 262.2 ng/mL and 2334.2 ng/mL | −2.25% | −2.16% | −1.44% | −0.30% | −1.12% | −1.72% | 36 h | 72% | stable | −3.91% | −2.53% | −1.93% |  |  |  |  |
| NC(=O)N1c2ccccc2C2OC2c2ccccc21 (centres unmarked) [Carbamazepine-10,11 epoxide, carbamazepine-10,11 epoxide] |  |  |  | −2.45% | −1.92% | −0.48% | −3.64% | −2.3% | 0.38% |  |  | stable | −6.23% | −3.56% | −2.75% | 249 ng/mL | 120 to 664 ng/mL | 299 ng/mL | 6% |
